Assay results from ChEMBL document CHEMBL3868581, “Avarol derivatives as competitive AChE inhibitors, non hepatotoxic and neuroprotective agents for Alzheimer's disease” (Eur J Med Chem, 2016).
Active and inactive are the calls of the source. The calls are words filed in the database; no cut-off is given here.

Experiments:
[1] = Neurotoxicity in human SH-SY5Y cells assessed as decrease in cell viability at 25 to 50 uM after 24 hrs by XTT assay; assay type: toxicity, cell-based
Cholinesterase = Cholinesterase (Equus caballus, UniProt P81908)
Description: Inhibition of equine serum BuChE using butyrylthiocholine iodide as substrate incubated for 15 mins followed by substrate addition by Ellman's method

cells [2] = conditions: Homo sapiens, SH-SY5Y, 24 h
Description: Neuroprotective activity against okadaic acid-induced tau phosphorylation-mediated cell death in human SH-SY5Y cells assessed as increase in cell viability after 24 hrs by XTT assay

[3] = Neurotoxicity in human SH-SY5Y cells assessed as decrease in cell viability at 1 uM after 24 hrs by XTT assay; assay type: toxicity, cell-based
Acetylcholinesterase [4] = biological target: T1, Acetylcholinesterase (Electrophorus electricus, UniProt O42275)
Description: Inhibition of Electrophorus electricus AChE using acetylthiocholine iodide as substrate incubated for 15 mins followed by substrate addition by Ellman's method

[5] = biological target: Cholinesterase (Equus caballus) (UniProt P81908); assay: Inhibition of equine serum BuChE using butyrylthiocholine iodide as substrate at 50 uM incubated for 15 mins followed by substrate addition by Ellman's method
cells [6] = conditions: Homo sapiens, SH-SY5Y, 24 h; remark: listed apart in the source
Description: Neuroprotective activity against oligomycine/rotenone-induced oxidative stress-mediated cell death in human SH-SY5Y cells assessed as increase in cell viability after 24 hrs by XTT assay

HepG2 [7] = assay: Hepatotoxicity in human HepG2 cells assessed as decrease in cell viability at 100 uM after 24 hrs by XTT assay; assay type: toxicity, cell-based; conditions: hepg2, 24 h
HepG2 [8] = assay: Hepatotoxicity in human HepG2 cells assessed as decrease in cell viability at 1 to 100 uM after 24 hrs by XTT assay; assay type: toxicity, cell-based; conditions: hepg2, 24 h
cells [9] = conditions: Rattus norvegicus, Sprague-Dawley, Cortical neurone, 3 h
Description: Neuroprotective activity against NMDA-induced excitotoxicity in Sprague-Dawley rat primary cortical neurons assessed as increase in cell viability after 3 hrs by MTT assay

[10] = biological target: Acetylcholinesterase (Electrophorus electricus) (UniProt O42275); assay: Competitive inhibition of Electrophorus electricus AChE using acetylthiocholine iodide as substrate at 0.001 to 10 uM incubated for 15 mins followed by substrate addition by Lineweaver-Burk reciprocal plot analysis
SH-SY5Y [11] = assay: Neuroprotective activity against oligomycine/rotenone-induced oxidative stress-mediated cell death in human SH-SY5Y cells assessed as increase in cell viability at 10 uM after 24 hrs by microscopic analysis; assay type: functional, cell-based
HepG2 [12] = assay: Hepatoprotective activity in human HepG2 cells at 1 to 25 uM after 24 hrs by XTT assay; assay type: functional, cell-based
SH-SY5Y [13] = assay: Neuroprotective activity against okadaic acid-induced tau phosphorylation-mediated cell death in human SH-SY5Y cells assessed as increase in cell viability at 10 uM after 24 hrs by microscopic analysis; assay type: functional, cell-based
Acetylcholinesterase [14] = biological target: T1, Acetylcholinesterase; remark: listed apart in the source
Description: Inhibition of Electrophorus electricus AChE using acetylthiocholine iodide as substrate by Dixon plot analysis

Chain of Acetylcholinesterase (Electrophorus electricus) (O42275 24-633 limits assumed): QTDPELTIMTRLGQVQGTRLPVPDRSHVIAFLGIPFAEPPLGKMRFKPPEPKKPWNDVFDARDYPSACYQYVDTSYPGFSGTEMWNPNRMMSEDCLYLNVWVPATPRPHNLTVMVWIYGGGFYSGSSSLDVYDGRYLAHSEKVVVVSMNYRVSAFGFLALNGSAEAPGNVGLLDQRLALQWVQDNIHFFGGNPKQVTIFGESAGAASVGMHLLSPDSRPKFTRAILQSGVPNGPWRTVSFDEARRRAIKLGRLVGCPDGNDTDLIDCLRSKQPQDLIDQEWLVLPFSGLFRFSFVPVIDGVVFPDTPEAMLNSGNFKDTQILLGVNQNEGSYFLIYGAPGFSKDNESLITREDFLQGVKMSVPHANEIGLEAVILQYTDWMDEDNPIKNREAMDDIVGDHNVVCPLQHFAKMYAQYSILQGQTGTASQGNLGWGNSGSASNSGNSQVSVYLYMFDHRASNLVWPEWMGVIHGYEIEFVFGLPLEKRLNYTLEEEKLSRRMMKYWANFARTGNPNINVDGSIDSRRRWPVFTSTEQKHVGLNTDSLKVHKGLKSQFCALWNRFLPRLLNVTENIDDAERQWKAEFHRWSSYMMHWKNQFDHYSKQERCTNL
Chain of Cholinesterase (P81908 whole entry): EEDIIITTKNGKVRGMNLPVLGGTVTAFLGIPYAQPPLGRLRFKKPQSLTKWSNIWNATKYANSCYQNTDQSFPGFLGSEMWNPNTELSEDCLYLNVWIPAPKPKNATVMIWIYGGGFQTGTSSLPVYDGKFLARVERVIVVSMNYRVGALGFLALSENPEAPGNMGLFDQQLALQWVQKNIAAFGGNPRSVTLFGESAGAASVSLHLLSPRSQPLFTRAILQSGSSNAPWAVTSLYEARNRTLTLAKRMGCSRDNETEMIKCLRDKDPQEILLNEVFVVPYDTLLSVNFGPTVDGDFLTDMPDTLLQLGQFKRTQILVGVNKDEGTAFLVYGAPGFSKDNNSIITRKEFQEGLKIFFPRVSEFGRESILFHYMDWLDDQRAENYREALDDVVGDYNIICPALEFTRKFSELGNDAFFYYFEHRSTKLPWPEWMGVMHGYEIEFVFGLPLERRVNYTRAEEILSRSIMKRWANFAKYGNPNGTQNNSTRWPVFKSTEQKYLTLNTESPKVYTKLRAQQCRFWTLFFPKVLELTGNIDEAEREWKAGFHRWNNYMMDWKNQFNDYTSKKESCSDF
Chain of Cholinesterase (Equus caballus) (P81908 whole entry): as above
T1 sequence (O42275 whole entry): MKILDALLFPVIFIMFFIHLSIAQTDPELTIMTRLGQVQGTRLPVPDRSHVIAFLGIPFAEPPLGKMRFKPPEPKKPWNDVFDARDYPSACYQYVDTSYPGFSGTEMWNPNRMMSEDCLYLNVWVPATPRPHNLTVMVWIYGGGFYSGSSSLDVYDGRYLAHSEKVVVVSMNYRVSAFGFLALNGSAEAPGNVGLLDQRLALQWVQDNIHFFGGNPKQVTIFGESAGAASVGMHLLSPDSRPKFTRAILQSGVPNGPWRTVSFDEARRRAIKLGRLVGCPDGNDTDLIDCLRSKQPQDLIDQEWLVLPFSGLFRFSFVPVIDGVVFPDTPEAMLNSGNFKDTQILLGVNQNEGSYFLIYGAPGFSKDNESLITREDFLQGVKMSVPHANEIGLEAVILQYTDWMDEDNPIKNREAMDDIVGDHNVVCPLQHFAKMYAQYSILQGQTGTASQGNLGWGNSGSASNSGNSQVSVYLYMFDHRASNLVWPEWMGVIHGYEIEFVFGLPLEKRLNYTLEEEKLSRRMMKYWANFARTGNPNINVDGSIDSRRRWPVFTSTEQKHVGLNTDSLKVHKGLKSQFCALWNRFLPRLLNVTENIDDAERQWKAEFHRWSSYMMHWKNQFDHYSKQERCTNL

SMILES	Activity [1]	IC50 (Cholinesterase) [µM]	EC50 (cells [2]) [nM]	Activity [3]	IC50 (Acetylcholinesterase [4]) [µM]	Imax [5] [%]	EC50 (cells [6]) [µM]	Activity (HepG2 [7])	Activity (HepG2 [8])	EC50 (cells [9]) [nM]	inhibition [10]	Activity (SH-SY5Y [11])	Activity (HepG2 [12])	Activity (SH-SY5Y [13])	Ki (Acetylcholinesterase [14]) [nM]
C/C(=C\Cc1cc(O)cc(Sc2ccccc2C(=O)O)c1O)CCCC(C)CCCC(C)CCCC(C)C (configuration not stated)	Non-Toxic	12.8	1210	Non-Toxic	13.8	94.3 to 95	1.1	Toxic	–	–	–	–	–	–	–
CC(C)=CCC/C(C)=C/Cc1cc(O)cc(Sc2ccccc2C(=O)O)c1O	Non-Toxic	–	220	Non-Toxic	13.1	17.8	8.17	–	Non-Toxic	–	–	–	–	–	–
CC(C)=CCC/C(C)=C/CC/C(C)=C/Cc1cc(O)cc(Sc2ccccc2C(=O)O)c1O	Non-Toxic	–	516	Non-Toxic	18.1	8.4	13.6	–	Non-Toxic	–	–	–	–	–	–
COc1ccc2c3c1O[C@H]1C[C@@H](O)C=C[C@@]31CCN(C)C2 [GALANTAMINE]	Non-Toxic	–	1940	Non-Toxic	–	–	2.81	–	–	1480	–	–	–	–	–
CC(C)=CCC/C(C)=C/CC/C(C)=C/CC/C(C)=C/Cc1cc(O)cc(Sc2ccccc2C(=O)O)c1O	Non-Toxic	19.7	150	Non-Toxic	6.77	60.5	0.52	–	Non-Toxic	–	Active	Active	Active	Active	0.00059
CC1=CCC[C@H]2[C@](C)(Cc3cc(O)cc(Sc4ccccc4C(=O)O)c3O)[C@@H](C)CC[C@]12C	–	15.1	–	–	15.1	77.5	–	–	–	–	Active	–	–	–	0.0585
CC1=CCC[C@H]2[C@](C)(Cc3cc(O)ccc3O)[C@@H](C)CC[C@]12C [AVAROL]	Non-Toxic	–	–	Non-Toxic	286	–	–	–	–	–	–	–	–	–	–
CC(C)=CCc1cc(O)cc(Sc2ccccc2C(=O)O)c1O	Non-Toxic	–	540	Non-Toxic	7.88	13.1	4.65	–	Non-Toxic	–	Active	–	–	–	0.221
